# In PubChem BioAssay AID2060614 (Molecular Pharmacology Branch, DTP, NCI, 2025):
# System: 598228-144-R-J1-PDC complex spheroids, viability
# Assay: Anticancer human tumor 598228-144-R-J1-PDC patient-derived serous endometrial adenocarcinoma cell line growth inhibition [CLK]
# Conditions: for IC50: curve of first compound; for viability, T/C: stronger effect = lower value
# In short: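 Multi-cell-type spheroids combined patient-derived tumor cells with HUVEC endothelial cells and human mesenchymal stem cells. Paired agents were dosed in half-log steps down from about clinical Cmax, or from 10 microM where Cmax was unknown.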
# [1] = second compound 0.0316 µM, first compound 0.0316 µM
# [2] = second compound 0.0316 µM, first compound 0.1 µM
# [3] = second compound 0.0316 µM, first compound 0.316 µM
# [4] = second compound 0.0316 µM, first compound 1 µM
# [5] = second compound 0.0316 µM, first compound 3.16 µM
# [6] = second compound 0.0316 µM, first compound 10 µM
# [7] = second compound 0.1 µM, first compound 0.0316 µM
# [8] = second compound 0.1 µM, first compound 0.1 µM
# [9] = second compound 0.1 µM, first compound 0.316 µM
# [10] = second compound 0.1 µM, first compound 1 µM
# [11] = second compound 0.1 µM, first compound 3.16 µM
# [12] = second compound 0.1 µM, first compound 10 µM
# [13] = second compound 0.316 µM, first compound 0.0316 µM
# [14] = second compound 0.316 µM, first compound 0.1 µM
# [15] = second compound 0.316 µM, first compound 0.316 µM
# [16] = second compound 0.316 µM, first compound 1 µM
# [17] = second compound 0.316 µM, first compound 3.16 µM
# [18] = second compound 0.316 µM, first compound 10 µM
# [19] = second compound 1 µM, first compound 0.0316 µM
# [20] = second compound 1 µM, first compound 0.1 µM
# [21] = second compound 1 µM, first compound 0.316 µM
# [22] = second compound 1 µM, first compound 1 µM
# [23] = second compound 1 µM, first compound 3.16 µM
# [24] = second compound 1 µM, first compound 10 µM
# [25] = second compound 3.16 µM, first compound 0.0316 µM
# [26] = second compound 3.16 µM, first compound 0.1 µM
# [27] = second compound 3.16 µM, first compound 0.316 µM
# [28] = second compound 3.16 µM, first compound 1 µM
# [29] = second compound 3.16 µM, first compound 3.16 µM
# [30] = second compound 3.16 µM, first compound 10 µM
# [31] = second compound 10 µM, first compound 0.0316 µM
# [32] = second compound 10 µM, first compound 0.1 µM
# [33] = second compound 10 µM, first compound 0.316 µM
# [34] = second compound 10 µM, first compound 1 µM
# [35] = second compound 10 µM, first compound 3.16 µM
# [36] = second compound 10 µM, first compound 10 µM
# 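Also: spheroids exposed to compounds for seven days before readout.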
# 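For viability, T/C in this document: 100% = DMSO vehicle control wells.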
smiles,measurement,setting,value
CC(=O)O[C@H]1C(=O)[C@@]2(C)[C@H]([C@H](OC(=O)c3ccccc3)[C@]3(O)C[C@H](OC(=O)[C@H](O)[C@@H](NC(=O)c4ccccc4)c4ccccc4)C(C)=C1C3(C)C)[C@]1(OC(C)=O)CO[C@@H]1C[C@@H]2O + CNC(=O)c1ccc(Nc2nc(OC3CCCC3)c3c(-c4ccc5nc(C)oc5c4)c[nH]c3n2)c(OC)c1,IC50,second compound 0.0316 µM,< 31.6 nM
same,IC50,second compound 0.1 µM,> 10000 nM
same,IC50,second compound 0.316 µM,> 10000 nM
same,IC50,second compound 1 µM,> 10000 nM
same,IC50,second compound 3.16 µM,> 10000 nM
same,IC50,second compound 10 µM,> 10000 nM
same,"viability, T/C",[1],45.6%
same,"viability, T/C",[2],46.2%
same,"viability, T/C",[3],40.3%
same,"viability, T/C",[4],40.9%
same,"viability, T/C",[5],45.2%
same,"viability, T/C",[6],50.6%
same,"viability, T/C",[7],70%
same,"viability, T/C",[8],58%
same,"viability, T/C",[9],64.8%
same,"viability, T/C",[10],66.2%
same,"viability, T/C",[11],57.4%
same,"viability, T/C",[12],67%
same,"viability, T/C",[13],121%
same,"viability, T/C",[14],123%
same,"viability, T/C",[15],94.9%
same,"viability, T/C",[16],108%
same,"viability, T/C",[17],106%
same,"viability, T/C",[18],84.1%
same,"viability, T/C",[19],120%
same,"viability, T/C",[20],102%
same,"viability, T/C",[21],92.5%
same,"viability, T/C",[22],125%
same,"viability, T/C",[23],109%
same,"viability, T/C",[24],86.8%
same,"viability, T/C",[25],102%
same,"viability, T/C",[26],96.2%
same,"viability, T/C",[27],103%
same,"viability, T/C",[28],108%
same,"viability, T/C",[29],105%
same,"viability, T/C",[30],92.1%
same,"viability, T/C",[31],101%
same,"viability, T/C",[32],97%
same,"viability, T/C",[33],109%
same,"viability, T/C",[34],103%
same,"viability, T/C",[35],90.4%
same,"viability, T/C",[36],107%
COc1ccc([C@@H](O)c2cc(-c3ncnc4cc(N5CCOCC5)ccc34)c(F)cc2Cl)nn1 + CNC(=O)c1ccc(Nc2nc(OC3CCCC3)c3c(-c4ccc5nc(C)oc5c4)c[nH]c3n2)c(OC)c1,IC50,second compound 0.0316 µM,6490 nM
same,IC50,second compound 0.1 µM,5470 nM
same,IC50,second compound 0.316 µM,4050 nM
same,IC50,second compound 1 µM,3670 nM
same,IC50,second compound 3.16 µM,3710 nM
same,IC50,second compound 10 µM,2270 nM
same,"viability, T/C",[1],120%
same,"viability, T/C",[2],109%
same,"viability, T/C",[3],99%
same,"viability, T/C",[4],94.9%
same,"viability, T/C",[5],61.8%
same,"viability, T/C",[6],41.3%
same,"viability, T/C",[7],116%
same,"viability, T/C",[8],109%
same,"viability, T/C",[9],87.7%
same,"viability, T/C",[10],90.1%
same,"viability, T/C",[11],67.5%
same,"viability, T/C",[12],32.1%
same,"viability, T/C",[13],99.4%
same,"viability, T/C",[14],102%
same,"viability, T/C",[15],75.5%
same,"viability, T/C",[16],84.6%
same,"viability, T/C",[17],51.9%
same,"viability, T/C",[18],29.7%
same,"viability, T/C",[19],95.2%
same,"viability, T/C",[20],102%
same,"viability, T/C",[21],77%
same,"viability, T/C",[22],78.3%
same,"viability, T/C",[23],52.5%
same,"viability, T/C",[24],25.3%
same,"viability, T/C",[25],94.3%
same,"viability, T/C",[26],74.7%
same,"viability, T/C",[27],90%
same,"viability, T/C",[28],75.1%
same,"viability, T/C",[29],53.9%
same,"viability, T/C",[30],27.4%
same,"viability, T/C",[31],88.9%
same,"viability, T/C",[32],90.9%
same,"viability, T/C",[33],81.7%
same,"viability, T/C",[34],77.5%
same,"viability, T/C",[35],38.9%
same,"viability, T/C",[36],28.9%
COc1cccc2c1C(=O)c1c(O)c3c(c(O)c1C2=O)CC(O)(C(=O)CO)CC3OC1CC(N)C(O)C(C)O1 (stereo unspecified) + CNC(=O)c1ccc(Nc2nc(OC3CCCC3)c3c(-c4ccc5nc(C)oc5c4)c[nH]c3n2)c(OC)c1,IC50,second compound 0.0316 µM,247 nM
same,IC50,second compound 0.1 µM,254 nM
same,IC50,second compound 0.316 µM,227 nM
same,IC50,second compound 1 µM,162 nM
same,IC50,second compound 3.16 µM,101 nM
same,IC50,second compound 10 µM,105 nM
same,"viability, T/C",[1],102%
same,"viability, T/C",[2],83.6%
same,"viability, T/C",[3],40.4%
same,"viability, T/C",[4],11.3%
same,"viability, T/C",[5],0.76%
same,"viability, T/C",[6],0.83%
same,"viability, T/C",[7],122%
same,"viability, T/C",[8],106%
same,"viability, T/C",[9],36.5%
same,"viability, T/C",[10],7.7%
same,"viability, T/C",[11],0.47%
same,"viability, T/C",[12],1.08%
same,"viability, T/C",[13],123%
same,"viability, T/C",[14],128%
same,"viability, T/C",[15],19.1%
same,"viability, T/C",[16],4.16%
same,"viability, T/C",[17],0.73%
same,"viability, T/C",[18],4.66%
same,"viability, T/C",[19],121%
same,"viability, T/C",[20],76.1%
same,"viability, T/C",[21],14.2%
same,"viability, T/C",[22],1.56%
same,"viability, T/C",[23],0.81%
same,"viability, T/C",[24],0.82%
same,"viability, T/C",[25],110%
same,"viability, T/C",[26],49.8%
same,"viability, T/C",[27],17.1%
same,"viability, T/C",[28],1.2%
same,"viability, T/C",[29],2.45%
same,"viability, T/C",[30],1.09%
same,"viability, T/C",[31],103%
same,"viability, T/C",[32],51.7%
same,"viability, T/C",[33],11.6%
same,"viability, T/C",[34],1.39%
same,"viability, T/C",[35],1.63%
same,"viability, T/C",[36],2.68%
